From patent US20260262643A1, “HERBICIDAL BENZOXAZINES” (FMC CORPORATION, priority 2022, published 2026)

Tests used:
[1] = system: barnyardgrass; assay: Test C preemergence; type: in vivo, Echinochloa crusgalli
In short: (§1)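 Seeds sown in loam soil–sand blend received a directed preemergence soil spray of test chemical in non-phytotoxic solvent with surfactant; postemergence plants (2–10 cm, one- to two-leaf stage) were sprayed with the same formulation. Greenhouse-held 10 days, then visually rated for injury versus untreated controls, 0 (no effect) to 100 (complete control).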

[2] = system: blackgrass; assay: Test C preemergence; type: in vivo, Alopecurus myosuroides
In short: as §1

[3] = system: corn; assay: Test C preemergence; type: in vivo, Zea mays
In short: as §1

[4] = system: green foxtail; assay: Test C preemergence; type: in vivo, Setaria viridis
In short: as §1

[5] = system: kochia; assay: Test C preemergence; type: in vivo, Bassia scoparia
In short: as §1

[6] = system: oat, wild; assay: Test C preemergence; type: in vivo, Avena fatua
In short: as §1

[7] = system: pigweed, palmer; assay: Test C preemergence; type: in vivo, Amaranthus palmeri; conditions: 500 g ai/ha, preemergence; 0 to 100 scale (0 no effect, 100 complete control)
In short: as §1

[8] = system: ragweed; assay: Test C preemergence; type: in vivo, Ambrosia artemisiifolia
In short: as §1

[9] = system: ryegrass, Italian; assay: Test C preemergence; type: in vivo, Lolium multiflorum
In short: as §1

[10] = system: soybean; assay: Test C preemergence; type: in vivo, Glycine max
In short: as §1

[11] = system: wheat; assay: Test C preemergence; type: in vivo, Triticum aestivum
In short: as §1

[12] = system: barnyardgrass; assay: Test C postemergence; type: in vivo, Echinochloa crusgalli; conditions: 10 days, 0 to 100 scale (0 no effect, 100 complete control)
In short: as §1

[13] = system: blackgrass; assay: Test C postemergence; type: in vivo, Alopecurus myosuroides; conditions: 10 days, 0 to 100 scale (0 no effect, 100 complete control)
In short: as §1

[14] = system: corn; assay: Test C postemergence; type: in vivo, Zea mays; conditions: 10 days, 0 to 100 scale (0 no effect, 100 complete control)
In short: as §1

[15] = system: green foxtail; assay: Test C postemergence; type: in vivo, Setaria viridis; conditions: 10 days, 0 to 100 scale (0 no effect, 100 complete control)
In short: as §1

[16] = system: kochia; assay: Test C postemergence; type: in vivo, Bassia scoparia; conditions: 500 g ai/ha, postemergence, 10 days, 0 to 100 scale (0 no effect, 100 complete control)
In short: as §1

[17] = system: oat, wild; assay: Test C postemergence; type: in vivo, Avena fatua; conditions: 10 days, 0 to 100 scale (0 no effect, 100 complete control)
In short: as §1

[18] = system: pigweed, palmer; assay: Test C postemergence; type: in vivo, Amaranthus palmeri; conditions: 500 g ai/ha, postemergence, 10 days, 0 to 100 scale (0 no effect, 100 complete control)
In short: as §1

[19] = system: ragweed; assay: Test C postemergence; type: in vivo, Ambrosia artemisiifolia; conditions: 500 g ai/ha, postemergence, 10 days, 0 to 100 scale (0 no effect, 100 complete control)
In short: as §1

[20] = system: ryegrass, Italian; assay: Test C postemergence; type: in vivo, Lolium multiflorum; conditions: 10 days, 0 to 100 scale (0 no effect, 100 complete control)
In short: as §1

[21] = system: soybean; assay: Test C postemergence; type: in vivo, Glycine max; conditions: 500 g ai/ha, postemergence, 10 days, 0 to 100 scale (0 no effect, 100 complete control)
In short: as §1

[22] = system: wheat; assay: Test C postemergence; type: in vivo, Triticum aestivum; conditions: 10 days, 0 to 100 scale (0 no effect, 100 complete control)
In short: as §1

[23] = system: galium; assay: Test C postemergence; type: in vivo, Galium aparine; conditions: 500 g ai/ha, postemergence, 10 days, 0 to 100 scale (0 no effect, 100 complete control)
In short: as §1

[24] = system: horseweed; assay: Test C postemergence; type: in vivo, Erigeron canadensis; conditions: 10 days, 0 to 100 scale (0 no effect, 100 complete control)
In short: as §1

[25] = system: barnyardgrass; assay: Test D flooded paddy test; type: in vivo, Echinochloa crus-galli; conditions: 250 g ai/ha, applied to paddy water, visual rating after 13 to 14 days, scale 0 to 100 (0 no effect, 100 complete control)
In short: (§2)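 Plants at the 2-leaf stage were grown in pots flooded to 3 cm, and compound was applied directly into the paddy water, with depth kept throughout. After 13–14 days in a greenhouse, injury was rated visually against untreated controls on a 0–100 scale (100 = complete control); a dash means not tested.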

[26] = system: ducksalad; assay: Test D flooded paddy test; type: in vivo, Heteranthera limosa; conditions: 250 g ai/ha, applied to paddy water, visual rating after 13 to 14 days, scale 0 to 100 (0 no effect, 100 complete control)
In short: as §2

[27] = system: rice; assay: Test D flooded paddy test; type: in vivo, Oryza sativa; conditions: 250 g ai/ha, applied to paddy water, visual rating after 13 to 14 days, scale 0 to 100 (0 no effect, 100 complete control)
In short: as §2

[28] = system: sedge, umbrella; assay: Test D flooded paddy test; type: in vivo, Cyperus difformis; conditions: 250 g ai/ha, applied to paddy water, visual rating after 13 to 14 days, scale 0 to 100 (0 no effect, 100 complete control)
In short: as §2

[29] = 500 g ai/ha, preemergence, 0 to 100 scale (0 no effect, 100 complete control)
[30] = Preemergence, 125 g ai/ha, 0 to 100 scale, 0 no effect, 100 complete control

Cc1nnc(-c2cccc(C(=O)N3C[C@H](C)Oc4c(Cl)cccc43)c2)o1 [Compound 355]
10: Plant response rating, Barnyardgrass ([12]; 500 g ai/ha, postemergence) | Plant response rating, Barnyardgrass ([12]; Postemergence, 125 g ai/ha) | Plant response rating, Corn ([14]; 500 g ai/ha, postemergence) | Plant response rating, Corn ([14]; Postemergence, 125 g ai/ha) | Plant response rating, Foxtail, Green ([15]; 500 g ai/ha, postemergence) | Plant response rating, Foxtail, Green ([15]; Postemergence, 125 g ai/ha) | Plant response rating, Pigweed, Palmer [18] | Plant response rating, Wheat ([22]; 500 g ai/ha, postemergence) | Plant response rating, Wheat ([22]; Postemergence, 125 g ai/ha) | Plant response rating, Galium [23]
0: Barnyardgrass plant response rating [1, 29] | Plant response rating, Barnyardgrass [1, 30] | Blackgrass plant response rating [2, 29] | Plant response rating, Blackgrass [2, 30] | Corn plant response rating [3, 29] | Plant response rating, Corn [3, 30] | Kochia plant response rating [5, 29] | Plant response rating, Kochia [5, 30] | Oat, Wild plant response rating [6, 29] | Plant response rating, Oat, Wild [6, 30] | Pigweed, Palmer plant response rating [7] | Ragweed plant response rating [8, 29] | Plant response rating, Ragweed [8, 30] | Soybean plant response rating [10, 29] | Wheat plant response rating [11, 29] | Plant response rating, Wheat [11, 30] | Plant response rating, Blackgrass ([13]; 500 g ai/ha, postemergence) | Plant response rating, Blackgrass ([13]; Postemergence, 125 g ai/ha) | Plant response rating, Kochia [16] | Plant response rating, Oat, Wild ([17]; 500 g ai/ha, postemergence) | Plant response rating, Oat, Wild ([17]; Postemergence, 125 g ai/ha) | Plant response rating, Ragweed [19] | Plant response rating, Ryegrass, Italian ([20]; 500 g ai/ha, postemergence) | Plant response rating, Ryegrass, Italian ([20]; Postemergence, 125 g ai/ha) | Plant response rating, Horseweed ([24]; 500 g ai/ha, postemergence) | Plant response rating, Horseweed ([24]; Postemergence, 125 g ai/ha) | Plant response rating, Barnyardgrass (Flood) [25] | Plant response rating, Ducksalad (Flood) [26] | Plant response rating, Rice (Flood) [27] | Plant response rating, Sedge, Umbrella (Flood) [28]
20: Foxtail, Green plant response rating [4, 29] | Plant response rating, Foxtail, Green [4, 30] | Ryegrass, Italian plant response rating [9, 29] | Plant response rating, Ryegrass, Italian [9, 30] | Plant response rating, Soybean [10, 30]
50: Plant response rating, Soybean [21]
